Test results reported in article PMC9296036, “A peptide interfering with the dimerization of oncogenic KITENIN protein and its stability suppresses colorectal tumour progression” (Clinical and Translational Medicine, 2022).
Ends that are not written are not given here.

Experiments:
KITENIN [1] = target: T1, KITENIN (Homo sapiens, UniProt Q8TAA9); assay: Endogenous KITENIN protein level in HCT116 cells (immunoblot); format: cell-based; settings: non-transfected HCT116 cells, KDIP 1 μM, 12 h
T1 construct: decreased endogenous KITENIN protein levels in non‐transfected HCT116 and CT‐26 cells; endogenous in cells; host or cells: HCT116
T1 sequence (Q8TAA9 1-524): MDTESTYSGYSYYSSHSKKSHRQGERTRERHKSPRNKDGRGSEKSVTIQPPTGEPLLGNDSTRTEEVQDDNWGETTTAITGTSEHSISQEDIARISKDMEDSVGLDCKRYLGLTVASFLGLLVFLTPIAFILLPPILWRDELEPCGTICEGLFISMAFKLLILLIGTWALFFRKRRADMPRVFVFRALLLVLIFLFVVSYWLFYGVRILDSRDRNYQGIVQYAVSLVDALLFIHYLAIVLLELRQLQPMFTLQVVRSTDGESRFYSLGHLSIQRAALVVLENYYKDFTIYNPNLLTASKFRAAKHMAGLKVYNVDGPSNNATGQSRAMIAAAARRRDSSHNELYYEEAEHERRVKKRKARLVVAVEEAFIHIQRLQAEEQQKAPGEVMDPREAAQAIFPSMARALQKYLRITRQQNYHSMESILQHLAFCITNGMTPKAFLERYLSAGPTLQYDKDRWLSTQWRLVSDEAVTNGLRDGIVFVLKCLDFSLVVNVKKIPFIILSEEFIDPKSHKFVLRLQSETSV
Source text: (§1) Antibodies against the following proteins were obtained from the indicated suppliers: Na^+/K^+ ATPase, GFP and tubulin (Santa Cruz Biotechnology); c‐Jun, p‐c‐Jun, ERK, p‐ERK, c‐MET, p‐c‐MET and GST (Cell Signaling Technology); V5, Myc (MBL); HA and β‐actin (Sigma); KITENIN (Atlas); His and RACK1, LC3, p62, Myo10, and eukaryotic elongation factor 2 (eEF2) (Abcam). They were used with appropriate secondary antibodies (Thermo). For transient transfection analyses, Caco2, HCT116 and 293T cells were transfected with various plasmids and harvested for immunoblot analysis 48 h after transfection. For most assays using stable cell lines, mixed polyclonal cells were used to exclude clonal variation. […]
(§2) FIGURE 2 KAI1 C‐terminal interacting tetraspanin (KITENIN) dimerization‐interfering peptide (KDIP) suppresses KITENIN‐induced enhanced cell invasion through the inhibition of the homodimerization of KITENIN. […] After 48 h of treatment, KITENIN transcripts in cells were analysed by the 2^−ΔΔ ^CT method using Q‐PCR. […] Caco2 cells were co‐transfected with KITENIN‐V5/Myc and treated with or without KDIP or scrambled peptide (scr) and were immunoprecipitated with anti‐V5 antibody and detected by indicated antibodies. Numerals indicated a quantification of the MYC bands normalized to the corresponding V5 bands (left panel). […] Numerals indicated a quantification of the bands observed (left panel). […]

KITENIN [2] = target: T2, KITENIN (Mus musculus, UniProt Q80Z96); assay: Endogenous KITENIN protein level in CT-26 cells (immunoblot); format: cell-based; settings: non-transfected CT-26 cells, KDIP 1 μM, 12 h
T2 construct: decreased endogenous KITENIN protein levels in non‐transfected HCT116 and CT‐26 cells; endogenous in cells; host or cells: CT-26
T2 sequence (Q80Z96 1-526): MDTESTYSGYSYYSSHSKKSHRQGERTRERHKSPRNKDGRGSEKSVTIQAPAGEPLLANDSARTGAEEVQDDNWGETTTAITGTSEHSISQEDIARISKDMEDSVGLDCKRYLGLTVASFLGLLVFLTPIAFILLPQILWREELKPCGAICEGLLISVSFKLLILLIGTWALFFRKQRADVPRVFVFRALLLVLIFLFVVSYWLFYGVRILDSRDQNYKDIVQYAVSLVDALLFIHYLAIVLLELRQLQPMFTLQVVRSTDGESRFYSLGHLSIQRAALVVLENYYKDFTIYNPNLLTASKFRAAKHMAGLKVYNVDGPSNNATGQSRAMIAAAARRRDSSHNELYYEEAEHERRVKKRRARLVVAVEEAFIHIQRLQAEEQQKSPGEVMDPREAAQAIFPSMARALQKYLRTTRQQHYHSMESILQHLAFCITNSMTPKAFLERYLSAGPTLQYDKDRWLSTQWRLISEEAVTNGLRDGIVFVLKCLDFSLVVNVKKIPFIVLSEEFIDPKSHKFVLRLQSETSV
Source text: as §1, §2

Sequence: YARVRRRGPRRWRLVSDEAV [KDIP]
- endogenous KITENIN protein level (in words) (KITENIN [1]): decreased
- endogenous KITENIN protein level (in words) (KITENIN [2]): decreased
